Results reported in patent US12357603B2, “Acyl sulfonamides for treating cancer” (Bayer Aktiengesellschaft, priority 2019, dated 2025).
Read-outs that look alike come from different tables or passages of the source.

Legend:
MDA-MB-436 cells = assay: Proliferation assay MDA-MB-436, negative control cell line (Alamar Blue, 144 h); assay type: cell-based; conditions: arithmetic mean
Outline: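 Viability read as Alamar Blue fluorescence (590 nm, 2 h) after 144 h compound exposure at 37 °C, 5% CO2. Cells seeded at 3000 per well in 2.5% FBS DMEM/Ham's F12, dosed a day later over 2.0×10E-9–2.0×10E-5 M in 9 steps with 0.2% DMSO, in triplicate.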

ZR-75-1 cells = assay: Proliferation assay ZR-75-1 (Alamar Blue, 144 h); assay type: cell-based; conditions: arithmetic mean, read-out: ZR75-1 proliferation assay, EC50 [M] (arithmetic mean)
Outline: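 Alamar Blue fluorescence (590 nm, 2 h reagent step) measured viability after 144 h compound exposure at 37 °C, 5% CO2. Compounds spanned 2.0×10E-5 to 2.0×10E-9 M in 9 dilutions at 0.2% DMSO, in triplicate, added 24 h after plating 3000 cells/well in RPMI 1640 plus 2.5% FBS.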

[1] = biological target: Recombinant human His-tagged Kat6a protein (amino acids 194-810) (Homo sapiens (Human), UniProt Q92794); assay: Kat6a activity assay (TR-FRET, acetylation of biotinylated Histone-H4-derived peptide); assay type: biochemical; conditions: 60 mins at 22° C., read-out: KAT6A-DPF/HAT domain IC50 [mol/l] (arithmetic mean)
Recombinant human His-tagged Kat6a protein (amino acids 194-810), sequence (Q92794 194-810): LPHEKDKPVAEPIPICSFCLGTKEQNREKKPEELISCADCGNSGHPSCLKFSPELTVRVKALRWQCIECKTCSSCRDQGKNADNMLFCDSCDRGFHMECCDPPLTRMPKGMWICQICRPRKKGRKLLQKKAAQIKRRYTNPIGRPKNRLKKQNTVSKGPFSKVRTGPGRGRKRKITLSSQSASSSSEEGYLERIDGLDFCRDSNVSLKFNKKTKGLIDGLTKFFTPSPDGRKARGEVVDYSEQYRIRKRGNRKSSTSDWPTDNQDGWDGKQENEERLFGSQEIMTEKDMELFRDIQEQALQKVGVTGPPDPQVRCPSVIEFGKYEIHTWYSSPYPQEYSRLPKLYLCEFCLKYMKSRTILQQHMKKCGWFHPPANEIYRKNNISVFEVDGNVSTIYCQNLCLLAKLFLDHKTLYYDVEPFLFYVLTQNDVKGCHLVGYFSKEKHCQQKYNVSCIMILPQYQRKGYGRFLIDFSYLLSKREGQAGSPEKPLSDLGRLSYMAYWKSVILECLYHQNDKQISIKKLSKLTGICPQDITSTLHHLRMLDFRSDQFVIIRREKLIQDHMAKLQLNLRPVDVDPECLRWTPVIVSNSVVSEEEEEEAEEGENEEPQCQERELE
Outline: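 TR-FRET read-out of H4 K8 acetylation, using anti-acetyl-K8 antibody and streptavidin acceptor, after anacardic acid stop; IC50 from four-parameter regression normalized to DMSO. Reaction: recombinant human Kat6a aa 194-810 (insect-cell derived), 220 nM H4 1-24 peptide, 600 nM acetyl-CoA, pH 8, 22 °C, 60 min, compounds 0.01-20 μM.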

[2] = system: ESR1 transcription (luciferase signal in MVLN cells); assay: Repression of ESR1 transcription, luciferase reporter in MVLN cells; assay type: cell-based; conditions: inhibition of luciferase signal in MVLN cells, arithmetic mean
Outline: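 Luminescence from an ER-driven Vitellogenin A2 element–luciferase reporter was measured after 24 h of treatment of MVLN cells, in duplicate wells. Alamar Blue (2 h, 530/590 nm) served as a cell-density control.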

[3] = biological target: Recombinant human GST-tagged Kat6b protein (431-end) (Homo sapiens, UniProt Q8WYB5); assay: Kat6b activity assay (TR-FRET, acetylation of biotinylated Histone-H4-derived peptide); assay type: biochemical; conditions: 30 mins at 22° C., read-out: KAT6B activity assay IC50 [mol/l] (arithmetic mean)
Recombinant human GST-tagged Kat6b protein (431-end) (Homo sapiens, UniProt Q8WYB5), sequence (Q8WYB5 whole entry, looked up): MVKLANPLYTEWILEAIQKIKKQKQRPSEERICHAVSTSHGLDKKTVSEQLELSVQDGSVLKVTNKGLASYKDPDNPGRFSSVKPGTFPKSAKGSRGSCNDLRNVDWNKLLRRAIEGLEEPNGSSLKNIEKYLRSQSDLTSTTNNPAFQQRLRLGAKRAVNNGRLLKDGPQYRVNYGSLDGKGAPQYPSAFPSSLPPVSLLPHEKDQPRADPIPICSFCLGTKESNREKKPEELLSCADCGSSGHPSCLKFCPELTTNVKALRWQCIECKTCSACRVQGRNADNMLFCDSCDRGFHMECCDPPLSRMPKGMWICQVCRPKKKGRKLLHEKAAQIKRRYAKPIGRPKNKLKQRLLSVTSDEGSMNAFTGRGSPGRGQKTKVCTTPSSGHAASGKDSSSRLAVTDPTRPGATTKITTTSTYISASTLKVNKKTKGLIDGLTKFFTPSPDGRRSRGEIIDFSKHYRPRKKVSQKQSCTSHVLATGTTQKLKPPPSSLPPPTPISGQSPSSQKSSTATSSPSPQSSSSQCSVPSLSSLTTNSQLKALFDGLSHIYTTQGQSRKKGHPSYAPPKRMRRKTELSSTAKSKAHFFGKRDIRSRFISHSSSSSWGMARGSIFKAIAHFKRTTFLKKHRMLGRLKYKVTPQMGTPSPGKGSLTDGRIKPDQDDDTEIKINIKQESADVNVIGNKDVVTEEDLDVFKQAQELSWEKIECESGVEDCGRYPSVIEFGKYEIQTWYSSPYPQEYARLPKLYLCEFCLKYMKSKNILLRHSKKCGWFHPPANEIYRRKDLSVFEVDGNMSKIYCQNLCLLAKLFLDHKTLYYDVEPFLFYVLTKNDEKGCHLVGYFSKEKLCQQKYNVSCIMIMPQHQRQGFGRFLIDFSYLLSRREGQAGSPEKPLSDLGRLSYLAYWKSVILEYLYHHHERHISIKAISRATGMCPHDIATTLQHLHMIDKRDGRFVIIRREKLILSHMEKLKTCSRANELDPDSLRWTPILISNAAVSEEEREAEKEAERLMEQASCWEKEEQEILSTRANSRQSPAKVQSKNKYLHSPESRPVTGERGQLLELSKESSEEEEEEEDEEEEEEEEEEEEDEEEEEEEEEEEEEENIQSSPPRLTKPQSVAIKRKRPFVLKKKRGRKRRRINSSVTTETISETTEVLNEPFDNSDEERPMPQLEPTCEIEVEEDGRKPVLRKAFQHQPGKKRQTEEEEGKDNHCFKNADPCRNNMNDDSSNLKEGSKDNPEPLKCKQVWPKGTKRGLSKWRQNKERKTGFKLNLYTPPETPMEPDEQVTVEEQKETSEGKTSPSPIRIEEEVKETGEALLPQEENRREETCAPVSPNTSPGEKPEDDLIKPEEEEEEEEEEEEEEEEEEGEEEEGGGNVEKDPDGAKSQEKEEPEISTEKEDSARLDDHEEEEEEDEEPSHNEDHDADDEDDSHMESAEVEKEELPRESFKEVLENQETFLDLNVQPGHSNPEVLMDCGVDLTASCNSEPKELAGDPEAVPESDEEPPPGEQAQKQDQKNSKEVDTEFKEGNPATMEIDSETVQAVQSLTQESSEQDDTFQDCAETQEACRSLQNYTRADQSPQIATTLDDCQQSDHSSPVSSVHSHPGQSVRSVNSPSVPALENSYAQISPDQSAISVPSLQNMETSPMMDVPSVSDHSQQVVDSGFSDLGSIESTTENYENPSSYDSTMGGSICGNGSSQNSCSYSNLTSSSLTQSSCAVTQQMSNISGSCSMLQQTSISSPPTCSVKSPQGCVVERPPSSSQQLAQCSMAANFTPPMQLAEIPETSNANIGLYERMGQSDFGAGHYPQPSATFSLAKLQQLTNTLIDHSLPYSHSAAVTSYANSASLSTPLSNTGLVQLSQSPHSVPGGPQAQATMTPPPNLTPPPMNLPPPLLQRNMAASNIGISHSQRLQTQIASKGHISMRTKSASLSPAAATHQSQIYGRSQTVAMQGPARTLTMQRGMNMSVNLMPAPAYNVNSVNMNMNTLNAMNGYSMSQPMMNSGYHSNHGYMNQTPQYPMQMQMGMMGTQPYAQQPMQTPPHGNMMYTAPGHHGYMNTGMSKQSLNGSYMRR

JMSU-1 cells = assay: Proliferation assay JMSU-1 (Alamar Blue, 144 h); assay type: cell-based; conditions: JMSU1, bladder carcinoma, read-out: proliferation assays
Method: (§1) Assessment of the Anti-Proliferative Effect of Compounds in Different Cell Lines
(§2) To determine further cancer indications that respond to treatment with KAT6A or KAT6B3 inhibitors various cell lines carrying a KAT6A and/or KAT6B3 focal amplification or high KAT6A and/or KAT6B3 protein expression were used for proliferation assays with selected compounds.
(§3) 24 hours later, cells were treated with compounds (stock solution, 10 mM in DMSO) using the HP D300 Digital Dispenser in a concentration range of 2.0×10E-5 M to 2.0×10E-9 M in a single-dot curve with 9 dilutions and a DMSO concentration of 0.2%. Each sample was prepared as triplicate and rim wells were excluded. Plates were incubated at 37° C. and 5% CO2 for 144 h. Cell viability was measured by adding 10 μL of Alamar Blue Reagent (Invitrogen #DAL 1100) and plates were incubated for 2 h at 37° C. and 5% CO2. Fluorescence was measured at 590 nm wavelength with a Tecan Spark or Victor X3 MTP-Reader (PerkinElmer).

LNCAP cells = assay: Proliferation assay LNCAP (Alamar Blue, 144 h); assay type: cell-based; conditions: Homo sapiens, prostate carcinoma, 10 nM R1881, read-out: proliferation assays
Method: as §1, §2, §3

THP-1 cells = assay: Proliferation assay THP-1 (Alamar Blue, 144 h); assay type: cell-based; conditions: Homo sapiens, THP1, acute monocytic leukemia, read-out: proliferation assays
Method: as §1, §2, §3

DMS 53 cells = assay: Proliferation assay DMS 53 (Alamar Blue, 144 h); assay type: cell-based; conditions: Homo sapiens, DMS53, small cell lung cancer, read-out: proliferation assays
Method: as §1, §2, §3

COLO 684 cells = assay: Proliferation assay COLO 684 (Alamar Blue, 144 h); assay type: cell-based; conditions: Homo sapiens, COLO684, uterus adenocarcinoma, read-out: proliferation assays
Method: as §1, §2, §3

EFM-19 cells = assay: Proliferation assay EFM-19 (Alamar Blue, 144 h); assay type: cell-based; conditions: Homo sapiens, EFM19, breast carcinoma, read-out: proliferation assays
Method: as §1, §2, §3

[4] = biological target: Recombinant human GST-tagged Kat6b protein (431-end); assay: Kat6b activity assay (TR-FRET, acetylation of biotinylated Histone-H4-derived peptide); assay type: biochemical; conditions: 30 mins at 22° C., read-out: KAT6B activity assay IC50 [mol/l] (arithmetic mean)
[5] = Homo sapiens, MDA-MB-436, 144 h

| Structure (SMILES) | EC50 (MDA-MB-436 cells; [5]) [nM] | EC50 (ZR-75-1 cells; Homo sapiens, ZR-75-1, 144 h) [M] | IC50 [1] [nM] | IC50 ([2]; Homo sapiens, MVLN) [nM] | IC50 [3] [nM] | EC50 (JMSU-1 cells) [nM] | EC50 (LNCAP cells) [nM] | EC50 (ZR-75-1 cells) [M] | EC50 (THP-1 cells) [nM] | EC50 (DMS 53 cells) [nM] | EC50 (COLO 684 cells) [nM] | EC50 (EFM-19 cells) [nM] | EC50 (MDA-MB-436 cells) [nM] | IC50 [2] [nM] | IC50 [4] [nM] |
| --- | --- | --- | --- | --- | --- | --- | --- | --- | --- | --- | --- | --- | --- | --- | --- |
| CC(C)c1ccc(OCC2CC2(F)F)c(S(=O)(=O)NC(=O)c2cc3ccc(N(C)C)cc3o2)c1 (racemic) [Example 186, N-((2-((2,2-difluorocyclopropyl)methoxy)-5-isopropylphenyl)sulfonyl)-6-(dimethylamino)benzofuran-2-carboxamide (rac)] | > 20000 | 5.59e-08 | 8.47 | 23.6 | 26.1 |  |  |  |  |  |  |  |  |  |  |
| CN(C)c1ccc2cc(C(=O)NS(=O)(=O)c3ccccc3-c3ccccc3)oc2c1 [Example 14, N-([1,1′-Biphenyl]-2-sulfonyl)-6-(dimethylamino)-1-benzofuran-2-carboxamide] | 18400 |  |  | 121 |  | 605 | 4160 | 1.2e-07 | 238 | 490 | 184 | 223 |  |  |  |
| CN(C)c1ccc2cc(C(=O)NS(=O)(=O)c3cccc4c3OC(F)(F)C(F)(F)O4)oc2c1 [Example 134, 6-(Dimethylamino)-N-(2,2,3,3-tetrafluoro-2,3-dihydro-1,4-benzodioxine-5-sulfonyl)-1-benzofuran-2-carboxamide] |  |  | 30.7 |  | 25.9 |  |  | 1.26e-07 |  |  |  |  | > 20000 | 76.8 |  |
| CCOc1ccc(CC)cc1S(=O)(=O)NC(=O)c1cc2ccc(N(C)C)cc2o1 [Example 143, 6-(Dimethylamino)-N-(2-ethoxy-5-ethylbenzene-1-sulfonyl)-1-benzofuran-2-carboxamide] | > 20000 | 6.42e-08 | 29.3 | 40.8 |  |  |  |  |  |  |  |  |  |  | 43.1 |
| CCc1cccc(OC)c1S(=O)(=O)NC(=O)c1cc2ccc(N(C)C)cc2o1 [Example 147, 6-(Dimethylamino)-N-(2-ethyl-6-methoxybenzene-1-sulfonyl)-1-benzofuran-2-carboxamide] | > 20000 | 7.83e-08 | 98.6 | 86.8 |  |  |  |  |  |  |  |  |  |  | 69.2 |
| COc1ccc(Br)cc1S(=O)(=O)NC(=O)c1cc2ccc(N(C)C)cc2o1 [Example 148, N-(5-Bromo-2-methoxybenzene-1-sulfonyl)-6-(dimethylamino)-1-benzofuran-2-carboxamide] | > 20000 | 1.28e-07 | 104 | 121 |  |  |  |  |  |  |  |  |  |  | 68 |
| COc1ccc(Cl)cc1S(=O)(=O)NC(=O)c1cc2ccc(N(C)C)cc2o1 [Example 149, N-(5-chloro-2-methoxybenzene-1-sulfonyl)-6-(dimethylamino)-1-benzofuran-2-carboxamide] | > 20000 | 1.74e-07 | 123 | 138 |  |  |  |  |  |  |  |  |  |  | 379 |
| CN(C)c1ccc2cc(C(=O)NS(=O)(=O)c3cc(C(C)(C)C)ccc3OCc3ccccc3)oc2c1 [Example 179, N-[(2-(Benzyloxy)-5-(tert-butyl)phenyl)sulfonyl]-6-(dimethylamino)benzofuran-2-carboxamide] | > 20000 | 6.79e-08 | 8.95 | 15.9 |  |  |  |  |  |  |  |  |  |  | 19.4 |
| CN(C)c1ccc2cc(C(=O)NS(=O)(=O)c3cc(C(C)(C)C)ccc3OCC3CC3)oc2c1 [Example 180, N-((5-(tert-butyl)-2-(cyclopropylmethoxy)phenyl)sulfonyl)-6-(dimethylamino)benzofuran-2-carboxamide] | > 20000 | 3.77e-08 | 4.36 | 22.9 |  |  |  |  |  |  |  |  |  |  | 21.3 |
| CN(C)c1ccc2cc(C(=O)NS(=O)(=O)c3cc(C(C)(C)C)ccc3OCC(F)(F)F)oc2c1 [Example 181, N-[(5-(tert-butyl)-2-(2,2,2-trifluoroethoxy)phenyl)sulfonyl]-6-(dimethylamino)benzofuran-2-carboxamide] | > 20000 | 9.93e-08 | 11.8 | 30.1 |  |  |  |  |  |  |  |  |  |  | 43.5 |
